Reference: patent USRE48097E1, “Cephem compounds, their production and use” (priority 2015, dated 2020)

What was measured:
Assay type in all cases: cell-based
[1] = test system: S. pneumoniae ATCC 6301; assay: MIC against S. pneumoniae ATCC 6301; conditions: Table 2, S. pneumoniae ATCC 6301, Pen S
From the text: (§1) Without limitation, the present cephem compounds alone, or in combination with one or more β-lactamase inhibitors, may provide improved antibacterial efficacy, particularly in antibiotic-resistant bacterial strains. It is believed that the present compounds may be structurally different from known compounds and, as a result, may be more basic in nature. It is an advantage that the present compounds may extend the spectrum of effective bacterial compounds, particularly against previously-resistant bacteria (e.g. ESKAPE organisms), and/or gram negative bacteria, without significant side effects. In a preferred embodiment, the present cephem compound may comprise reference compound ceftazidime, which may be used alone, or in combination with one or more β-lactamase inhibitors, such as NXL-104. As shown, the foregoing composition was tested for minimum inhibitory concentration (MIC, μg/mL) against bacteria listed in Tables 2-3.

[2] = test system: S. pneumoniae 2492; assay: MIC against S. pneumoniae 2492; conditions: Table 2, S. pneumoniae 2492, Pen R
From the text: as §1

[3] = test system: S. pneumoniae 2403; assay: MIC against S. pneumoniae 2403; conditions: Table 2, S. pneumoniae 2403, Pen S
From the text: as §1

[4] = test system: S. pneumoniae 2404; assay: MIC against S. pneumoniae 2404; conditions: Table 2, S. pneumoniae 2404, Pen S
From the text: as §1

[5] = test system: S. pneumoniae 2405; assay: MIC against S. pneumoniae 2405; conditions: Table 2, S. pneumoniae 2405, Pen S
From the text: as §1

[6] = test system: S. pneumoniae 2406; assay: MIC against S. pneumoniae 2406; conditions: Table 2, S. pneumoniae 2406, Pen S
From the text: as §1

[7] = test system: E. cloacae 551; assay: MIC against E. cloacae 551; conditions: Table 2, E. cloacae 551, Caz R, IMP S
From the text: as §1

[8] = test system: E. cloacae 552; assay: MIC against E. cloacae 552; conditions: Table 2, E. cloacae 552, Caz S, IMP S
From the text: as §1

[9] = test system: E. cloacae 566; assay: MIC against E. cloacae 566; conditions: Table 2, E. cloacae 566, Caz R, IMP S
From the text: as §1

[10] = test system: C. freundii 15; assay: MIC against C. freundii 15; conditions: Table 2, C. freundii 15, Caz R, IMP S
From the text: as §1

[11] = test system: C. freundii 579; assay: MIC against C. freundii 579; conditions: Table 2, C. freundii 579, Caz R, IMP S
From the text: as §1

[12] = test system: C. freundii 2487; assay: MIC against C. freundii 2487; conditions: Table 2, C. freundii 2487, Caz R, IMP S
From the text: as §1

[13] = test system: K. pneumoniae 4104; assay: MIC against K. pneumoniae 4104; conditions: K. pneumoniae 4104, KPC-3, TEM-1
Procedure: (§2) As shown, the foregoing composition was tested for minimum inhibitory concentration (MIC, μg/mL) against bacteria listed in Tables 2-3.

[14] = test system: K. pneumoniae 4105; assay: MIC against K. pneumoniae 4105; conditions: K. pneumoniae 4105, KPC-3, TEM-1, SHV-11
Procedure: as §2

[15] = test system: K. pneumoniae 4106; assay: MIC against K. pneumoniae 4106; conditions: K. pneumoniae 4106, KPC-3, TEM-1, SHV-12, SHV-141
Procedure: as §2

[16] = test system: K. pneumoniae 2697; assay: MIC against K. pneumoniae 2697; conditions: Table 2, K. pneumoniae 2697, IMP-4
From the text: as §1

[17] = test system: E. coli 4080; assay: MIC against E. coli 4080; conditions: Table 2, E. coli 4080, TEM-10
From the text: as §1

[18] = test system: E. coli 4101; assay: MIC against E. coli 4101; conditions: Table 2, E. coli 4101, CTX-M-14, TEM-1
From the text: as §1

[19] = test system: P. aeruginosa 2573; assay: MIC against P. aeruginosa 2573; conditions: Table 2, P. aeruginosa 2573, OXA-10 (Class D)
From the text: as §1

[20] = test system: E. cloacae 2689; assay: MIC against E. cloacae 2689; conditions: Table 3, E. cloacae 2689, KPC-2
Procedure: as §2

[21] = test system: E. cloacae 2710; assay: MIC against E. cloacae 2710; conditions: Table 3, E. cloacae 2710, KPC-3, VIM-1
Procedure: as §2

[22] = test system: E. coli 2666; assay: MIC against E. coli 2666; conditions: Table 3, E. coli 2666, KPC-2
Procedure: as §2

[23] = test system: K. pneumoniae 2711; assay: MIC against K. pneumoniae 2711; conditions: Table 3, K. pneumoniae 2711, KPC-3, VIM-1
Procedure: as §2

[24] = Table 2, in combination with NXL-104
[25] = Table 3, in combination with NXL-104

Measured: MIC

CC(C)(O/N=C(\C(=O)N[C@@H]1C(=O)N2C(C(=O)[O-])=C(C[n+]3ccccc3)CS[C@H]12)c1csc(N)n1)C(=O)O [CAZ, ceftazidime, reference compound]
0.25 µg/mL: [5]; alone | [5]; in combination with NXL-104 | [8]; in combination with NXL-104 | [18]; in combination with NXL-104
2 µg/mL: [13]; [25] | [20]; in combination with NXL-104 | [23]; in combination with NXL-104
0.50 µg/mL: [8]; alone | [18]; alone
8 µg/mL: [15]; [25]
8.00 µg/mL: [2]; alone | [2]; in combination with NXL-104 | [10]; alone | [12]; in combination with NXL-104 | [13]; [24] | [16]; alone | [19]; alone | [19]; in combination with NXL-104
2.00 µg/mL: [9]; in combination with NXL-104 | [10]; in combination with NXL-104 | [11]; in combination with NXL-104 | [16]; in combination with NXL-104
4 µg/mL: [14]; [25] | [22]; in combination with NXL-104
>32 µg/mL: [9]; alone | [13]; Table 3, alone | [14]; Table 3, alone | [15]; Table 3, alone | [20]; alone | [21]; alone | [21]; in combination with NXL-104 | [22]; alone | [23]; alone
16.00 µg/mL: [7]; alone | [12]; alone | [15]; Table 2, alone | [17]; alone
4.00 µg/mL: [7]; in combination with NXL-104 | [11]; alone | [14]; [24] | [15]; [24] | [17]; in combination with NXL-104
32.00 µg/mL: [4]; alone | [4]; in combination with NXL-104 | [13]; Table 2, alone | [14]; Table 2, alone
0.12 µg/mL: [1]; alone | [1]; in combination with NXL-104 | [3]; alone | [3]; in combination with NXL-104 | [6]; alone | [6]; in combination with NXL-104
